“Also recorded” adds a separate entry of the source.
Experiments:
[1] = system: human liver microsomes; test: Liver microsome stability assay, human; assay type: in vitro ADME; conditions: 1 μM, 37° C., parent compound remaining, criterion >50%
Description: (§1) The liver microsome stability assay provides an estimate of compound stability and rate of metabolism in vivo. The desirable criterion for this assay is >50% parent compound after 30 min.
(§2) A 1 μM compound solution was incubated with rat or human liver microsomes (20 mg/ml) at 37° C. and the amount of parent compound remaining following the incubation was determined after 5 and 30 min of incubation using LC-MS.

[2] = PAMPA (parallel artificial membrane permeability assay); assay type: in vitro ADME; conditions: 10 μM, 5 h at RT; criterion >−6
Description: The PAMPA assay is used to determine how well a compound crosses a cell membrane by measuring its passage through a phosphotidyl choline barrier. A permeability coefficient >−6 indicates high permeability across lipid membranes and is indicative of a compounds ability to cross the blood brain barrier.
A 10 μM solution was incubated on a PDVF membrane coated with a 2% phoshotidyl choline solution for 5 h at RT. Membrane penetration was measured using LC-MS.

[3] = Protein binding assay, rat brain homogenates (rapid equilibrium dialysis); assay type: in vitro ADME; conditions: rat brain homogenate, % bound, criterion <99%
Description: (§3) The protein binding assays provide an estimate of free (unbound) fraction of the compound in the blood or brain in vivo. […] The desirable criterion for this assay is <99% of test compound bound.
(§4) Test compounds were first dissolved in DMSO to a concentration of 50 μM. This was followed by incubation in samples of human plasma and rat brain homogenates (final test concentration 1 μM). Binding of compounds to proteins was determined in the samples by rapid equilibrium dialysis after 5 and 30 min of incubation.

[4] = system: tau+ NFTs; test: Tissue binding assay (fluorescence), NFTs in human AD tissue sections; design: key to NFTs (staining): −: No staining; +: weak staining; ++: moderate staining; +++: intense staining; conditions: for NFTs (staining): Table 2, 100 μM, human AD tissue; for Binding to NFTs (in words): high test concentration, AD tissue
Description: (§5) Human brain tissue samples from the entorhinal cortex of patients with Alzheimer's disease (AD) and healthy controls were obtained from Tissue Solutions (Tissue Solutions Ltd, Glasgow, UK). Tissue samples were collected after informed written consent, and specimens were dissected at the tissue bank and snap-frozen for cryopreservation at a time interval of between 3 and 18 h after death. The frozen tissue was embedded in TissueTek® (VWR) and sectioned using a Microm HM560 cryostat (Thermo Scientific). Serial 12 μm sections were mounted onto SuperFrost®+ glass slides (VWR) and stored a −70° C.
(§6) The binding of compounds to tau+NFTs and Aβ+ plaques in human AD tissue were evaluated based on fluorescence.
(§7) Briefly, tissue sections were defrosted and fixed in ice-cold 70% ethanol. All tissue sections were rinsed with PBS after fixation and between all subsequent incubation steps. To quench autofluorescence, tissue sections were incubated first with 0.25% KMnO4 (Sigma-Aldrich) in PBS for 12 min, and then with 0.1% […]/0.1% oxalic acid (both reagents from Sigma-Aldrich) in PBS for 1 min. The tissue sections were blocked with 2% BSA in PBS for 10 min, and then incubated with the test compounds at 100 μM concentration for 1 h at RT. […] Finally the tissue sections were rinsed in PBS, and mounted in SlowFade® mounting media (Invitrogen). Images of labelled tissue sections were captured using a Nikon digital camera connected to a Leica microscope and using the NIS Elements D software (Nikon). Images were further processed with the Photoshop® software (Adobe).

[5] = literature reports; cited from earlier work
[6] = system: rat liver microsomes; test: Liver microsome stability assay, rat; assay type: in vitro ADME; conditions: 1 μM, 37° C., parent compound remaining, criterion >50%
Description: as §1, §2

[7] = system: Aβ+ plaques; test: Tissue binding assay (fluorescence), plaques in human AD tissue sections; design: key to Plaques (staining): −: No staining; +: weak staining; ++: moderate staining; +++: intense staining; conditions: for Plaques (staining): Table 2, human AD tissue
[8] = system: Aβ+ plaques; test: as above; design: key to Plaques (staining): −: No staining; +: weak staining; ++: moderate staining; +++: intense staining; conditions: for Plaques (staining): Table 2, 100 μM, human AD tissue; for Binding to plaques (in words): high test concentration, AD tissue
Description: as §5, §6, §7

[9] = system: tau+ NFTs; test: Tissue binding assay (fluorescence), NFTs in human AD tissue sections; design: key to NFTs (staining): −: No staining; +: weak staining; ++: moderate staining; +++: intense staining; conditions: for NFTs (staining): Table 2, human AD tissue; for Binding preference for NFTs (in words): lower test concentrations, AD tissue
[10] = Protein binding assay, human plasma (rapid equilibrium dialysis); assay type: in vitro ADME; conditions: % bound, criterion <99%
Description: as §3, §4

[11] = system: tau aggregates over Aβ1-42 amyloid; conditions: in vitro, Kudo et al. 2005; cited from earlier work
[12] = In vivo cold bio-distribution in rat (brain uptake, LC-MS)
Description: All animal studies were in compliance with local rules and regulations. Test compounds were administered by intravenous (i.v) injection through the tail vein of naïve male Wistar rats (50 μg test compound/rat). The animals were sacrificed by dislocation of the neck at 2, 10, 30, 60 min post-injection (p.i). The brain and plasma were collected from each animal. The concentration of test compound was measured in the plasma and brain homogenates using LS-MS, and calculated as % compound/g (% ID/g).

[13] = system: NFTs and plaques; conditions: literature reports; cited from earlier work

Row | Compound | Liver stability Human (% PCP) 5 min [1] [% PCP] | Liver stability Human (% PCP) 30 min [1] [% PCP] | PAMPA Log Pe [2] | fraction unbound at 1 μM [3] | NFTs (staining) [4] | Liver stability Rat (% PCP) 5 min [6] [% PCP] | Liver stability Rat (% PCP) 30 min [6] [% PCP] | Plaques (staining) ([7]; 1 μM) | Plaques (staining) ([7]; 10 μM) | Plaques (staining) [8] | NFTs (staining) ([9]; 1 μM) | NFTs (staining) ([9]; 10 μM) | fraction unbound at 1 μM [10] | Binding to NFTs (in words) [4] | Binding to plaques (in words) [8] | also measured
1 | CC(C)NC(=O)c1nn(-c2ccc(Cl)cc2)c(=O)c2c(N)scc12 [ATPZ, reference compound] | 98.9 | 68.29 | −5.24 | 0.0906 | +++ | 97.06 | 70.19 | − | − | + | + | ++ | 0.0098 |  |  | Reported brain uptake in vivo (in words) [5]: high brain uptake in vivo
2 | CNc1ccc(-c2ccc3ccccc3n2)cc1 [BF-158] |  |  |  |  |  |  |  |  |  |  |  |  |  |  |  | Selectivity for tau aggregates over Aβ1-42 amyloid [11]: threefold
3 | Nc1ccc(-c2ccc3ccccc3n2)cc1 [BF-170] |  |  |  |  |  |  |  |  |  |  |  |  |  |  |  | Selectivity for tau aggregates over Aβ1-42 amyloid [11]: threefold
4 | CC(C)NC(=O)c1nn(-c2ccc(OCCF)cc2)c(=O)c2c(N)scc12 [Compound 38] | 87.2 | 74.4 | −5.02 | 0.428 | +++ | 81.7 | 56.4 | − | + | ++ | + | ++ | 0.0642 | binds to both NFTs (A) and plaques (B); also recorded: bind to both NFTs and plaques | binds to both NFTs (A) and plaques (B); also recorded: bind to both NFTs and plaques | Binding preference for NFTs (in words) [9]: binds preferentially to NFTs; also recorded: bind with a preference for NFTs; tissue uptake at 2 min ([12]; male, Wistar, rat, brain, iv, 50 μg/rat, 2 min p.i.): > 0.2 %ID/g; tissue uptake at 10 min ([12]; male, Wistar, rat, brain, iv, 50 μg/rat, 10 min p.i.): 0.081 %ID/g; tissue uptake at 30 min ([12]; male, Wistar, rat, brain, iv, 50 μg/rat, 30 min p.i.): 0.021 %ID/g; tissue uptake at 60 min ([12]; male, Wistar, rat, brain, iv, 50 μg/rat, 60 min p.i.): 0.011 %ID/g; Clearance ratio 2:30 min ([12]; rat brain, 2 min vs 30 min p.i.): 13.3; Brain uptake and clearance (in words) ([12]; rat, from clearance ratio): rapid brain uptake followed by rapid clearance; Brain uptake % ID/g p.i ([12]; rat, i.v., 2 min p.i.): 0.28 % ID/g
5 | CC(C)NC(=O)c1nn(-c2ccc([N+](=O)[O-])cc2)c(=O)c2c(N)scc12 [Compound 105] | 91.5 | 73.2 | −5.10 | 0.112 | ++ | 81.29 | 58.8 |  | − | ++ | − | + | 0.02 | binds to NFTs (C, D) and plaques (D); also recorded: bind to both NFTs and plaques | binds to NFTs (C, D) and plaques (D); also recorded: bind to both NFTs and plaques | Binding preference for NFTs (in words) [9]: binds preferentially to NFTs; also recorded: bind with a preference for NFTs
6 | CC(=C(C#N)C#N)c1ccc2cc(N(C)CCF)ccc2c1 [FDDNP, 2-(1-(2-(N-(2-fluoroethy)-N-methylamino)-naphthalene-6-yl)-ethylidende)-malononitrile, reference compound] |  |  |  |  | +++ |  |  | + | ++ | +++ | + | ++ |  | detected to both NFTs and plaques | detected to both NFTs and plaques | Reported binding to NFTs / plaques (in words) [13]: binds to both NFTs and plaques
7 | [11CH3]Nc1ccc(-c2nc3ccc(O)cc3s2)cc1 [PiB, Pittsburgh compound B, reference compound] |  |  |  |  | +++ |  |  | ++ | ++ | +++ | − | + |  | detected to both NFTs and plaques | detected to both NFTs and plaques | Reported brain uptake in vivo (in words) [5]: high brain uptake in vivo; Reported binding to NFTs / plaques (in words) [13]: bind with a preference to Aβ+ plaques; Binding to plaques (in words) ([7]; lower test concentrations, AD tissue): only bound to plaques
